From patent publication US12466832B2, “Monohydrate and crystalline forms of 6-[(3S,4S)-4-methyl-1-(pyrimidin-2-ylmethyl)pyrrolidin-3-yl]-3-tetrahydropyran-4-yl-7H-imidazo[1,5-a]pyrazin-8-one” (Cardurion Pharmaceuticals, Inc., priority 2018, dated 2025)
In brackets after ≈: the same amount, converted by molar mass.

Key:
Type in all cases: physicochemical
[1] = Solubility repeat at pH 1.2 (reverse addition); conditions: pH 1.2 buffered media, pH 1.2, simulated gastric fluid, thermodynamic from solid, pH maintained at 1.2, reverse addition
Procedure: Procedure: pH 1.2 buffered media (0.4 ml) was added to two separate 7 ml vials. For each compound, material was added in portions to the pH 1.2 media. After each addition of compound, the vial was vortex mixed and the pH and appearance was recorded. The samples were adjusted to pH 1.2 with 1M HCl to within 0.05 of the desired pH unit. This was repeated until no further material was available (˜400 mg for each form, which would give a maximum concentration of around 1000 mg/ml if no adjustment was required).

[2] = Variable temperature XRPD (VT XRPD)
Procedure: For variable temperature (VT) experiments the samples were prepared and analysed in an Anton Paar chromed sample holder. A heating/cooling rate of 10° C./min was used with a 2 min isothermal hold before the measurement started. The measurement parameters are as per the standard screening data collection method (detailed above). Measurements were taken at the following temperatures: 25, 50, 75, 100, 160, and 25° C. The sample was then reanalyzed by XRPD after 1 h to check for complete rehydration.
MH1 was analysed at 25, 50, 75, 100, 160 and 25° C. (10° C./min heating rate and a 2 min wait before the measurement started) on the Empyrean. The sample was then reanalysed by XRPD after 10 and 20 min to check for rehydration.
Procedure: A second batch of MH2 material was prepared using the same procedure. This sample was then analysed by VTXRPD and by XRPD under vacuum.

[3] = Drying investigation of the two hydrates (vacuum oven, XRPD and TGA)
Procedure: Procedure: MH1 and MH2 were placed in a vacuum oven at 50° C. and RT for 24 h. The samples were then analysed by TGA and XRPD immediately after removal and after 4 hours standing under ambient conditions.

[4] = pH profiling solubility experiments; conditions: 24 hours
Procedure: Procedure: pH profiling solubility experiments were performed on MH1 and MH2. Solubility was determined in singlicate by suspending sufficient compound in relevant media (1.00 ml) to give a maximum final concentration as shown in the Table 17.
The suspensions were equilibrated at 25° C., on a Heidolph plate shaker set to 750 rpm for 24 hours. Samples were pH adjusted as required using 0.5M/1M HCl and 0.2M NaOH to within 0.1 of the desired pH unit (where possible). The pHs of the saturated solutions were measured (where applicable) and an appearance was recorded. The suspensions were filtered through a glass fibre C filter (particle retention […]) and diluted appropriately. Quantitation was by HPLC with reference to a standard solution of approximately 0.15 mg/ml in DMSO. Different volumes of the standard, diluted and undiluted sample solutions were injected. The solubility was calculated using the peak areas determined by integration of the peak found at the same retention time as the principal peak in the standard injection.

[5] = Solubility assessment of MH1 in solvents (HPLC of liquors, XRPD of isolated solids); conditions: for solubility at 24 h: organic solvent or mixture, thermodynamic from solid
Procedure: Procedure: Four solvents were chosen based on the competitive slurry experiments that favored MH1 as well as for diversity. Combinations of those solvents with water (aw=0.35) were also utilized to verify which hydrate is favored. Mixtures of the solvents with heptane (1:1) were used to check for crystal form with a good antisolvent.
MH1 (22×104 mg) was suspended in various solvents (11×0.5 ml) and stirred at either 5 or 50° C. for 24 hours at 750 rpm. The solids were isolated by filtration and centrifugation and the liquors were analysed by HPLC to determine their solubility (relative to a standard made up). The solids were also investigated by XRPD. This procedure was also followed for an additional five solvent systems comprising different ratios of THF:heptane and IPA:heptane at either 5 or 50° C. The isolated solids were investigated by XRPD, HPLC and ^1HNMR.

[6] = Ethanol:Heptane 1:1, 5° C., 24 hours
[7] = IPrOAc:0.5% water, 50° C., 24 hours
[8] = IPrOAc:Heptane 1:1, 5° C., 24 hours
[9] = IPrOAc:Heptane 1:1, 50° C., 24 hours
[10] = THF:0.8% water, 5° C., 24 hours
[11] = THF:Heptane 1:1, 5° C., 24 hours
[12] = THF:Heptane 1:1, 50° C., 24 hours

Solubility [1]: > 153 mg/mL
TGA post VT XRPD mass loss [2]: 3.2%
Form by VT XRPD upon heating ([2]; 75° C.): fully anhydrous
Form by VT XRPD after cooling back ([2]; re-cooled to 25° C.): peaks corresponding to MH1 are present
XRPD (T = 0, 50° C.) ([3]; vacuum oven 50° C. 24 h, immediately after removal): Matches MH1 and AH
TGA (T = 0, 50° C.) ([3]; vacuum oven 50° C. 24 h, immediately after removal, lost between 25 and 100° C.): 0.3% w/w lost between
TGA (T = 4 h, 50° C.) ([3]; vacuum oven 50° C. 24 h, then 4 hours ambient, lost between 25 and 100° C.): 2.7% w/w lost between
XRPD (T = 4 h, 50° C.) ([3]; vacuum oven 50° C. 24 h, then 4 hours at ambient conditions): Matches MH1
XRPD (T = 0, RT) ([3]; vacuum oven RT 24 h, immediately after removal): Matches MH1 and AH
TGA (T = 0, RT) ([3]; vacuum oven RT 24 h, immediately after removal, lost between 25 and 100° C.): 0.3% w/w lost between
TGA (T = 4 h, RT) ([3]; vacuum oven RT 24 h, then 4 hours ambient, lost between 25 and 100° C.): 1.8% w/w lost between
XRPD (T = 4 h, RT) ([3]; vacuum oven RT 24 h, then 4 hours at ambient conditions): Matches MH1
Solubility ([4]; media pH 1.2, 25° C., pH not maintained, final pH 5.02 (MH1-A), 6.63 (MH2-A)): >275 mg/mL
Solubility ([4]; media pH 4.0, 25° C., listed as MH1-B): >106 mg/mL
Solubility ([4]; media pH 6.5, 25° C., listed as MH1-C): >164 mg/mL
Solubility ([4]; media pH 7.5, 25° C., listed as MH1-D): 62 mg/mL (≈ 157 mM)
Solubility ([5]; Ethanol, 5° C., 24 hours): >200 mg/mL
Solubility ([5]; Ethanol, 50° C., 24 hours): >200 mg/mL
Solubility ([5]; Ethanol:4.2% water, 5° C., 24 hours): >200 mg/mL
XRPD (isolated solid) [5, 6]: MH1 + AH
XRPD (isolated solid) ([5]; Heptane, 5° C., 24 hours): MH1
XRPD (isolated solid) ([5]; Heptane, 50° C., 24 hours): MH1 + AH
XRPD (isolated solid) ([5]; IPA, 5° C., 24 hours): MH1 + AH
Solubility ([5]; IPA, 50° C., 24 hours): >200 mg/mL
XRPD (isolated solid) ([5]; IPA:Heptane 1:1, 5° C.): MH1
XRPD (isolated solid) ([5]; IPA:Heptane 1:2, 5° C.): MH1
XRPD (isolated solid) ([5]; IPA:Heptane 1:2, 50° C.): MH1
XRPD (isolated solid) ([5]; IPA:Heptane 1:3, 5° C.): MH1
XRPD (isolated solid) ([5]; IPA:Heptane 1:3, 50° C.): MH1
solubility at 24 h ([5]; IPrOAc with 0.5% water, IPrOAc:0.5% water, 5° C., 24 hours): 3.8 mg/mL
XRPD (isolated solid) ([5]; IPrOAc, 5° C., 24 hours): MH1
XRPD (isolated solid) ([5]; IPrOAc, 50° C., 24 hours): MH1 + AH
XRPD (isolated solid) ([5]; IPrOAc:0.5% water, 5° C., 24 hours): MH2
XRPD (isolated solid) [5, 7]: MH1
XRPD (isolated solid) [5, 8]: MH1
XRPD (isolated solid) [5, 9]: MH1
XRPD (isolated solid) ([5]; THF, 5° C., 24 hours): MH2 + New peaks
Solubility ([5]; THF, 50° C., 24 hours): >200 mg/mL
XRPD (isolated solid) [5, 10]: MH2
XRPD (isolated solid) [5, 11]: MH1
XRPD (isolated solid) [5, 12]: MH1
XRPD (isolated solid) ([5]; THF:Heptane 1:2, 5° C.): MH1
XRPD (isolated solid) ([5]; THF:Heptane 1:2, 50° C.): MH1
XRPD (isolated solid) ([5]; THF:Heptane 2:1, 5° C.): MH2
XRPD (isolated solid) ([5]; THF:Heptane 2:1, 50° C.): MH1
solubility at 24 h ([5]; ethanol with 4.2% water, Ethanol:4.2% water, 5° C., 24 hours): > 200 mg/mL
solubility at 24 h ([5]; Ethanol, 5° C., 24 hours): > 200 mg/mL
solubility at 24 h ([5]; Ethanol, 50° C., 24 hours): > 200 mg/mL
solubility at 24 h ([5]; Ethanol:4.2% water, 50° C., 24 hours): > 200 mg/mL
solubility at 24 h [5, 6]: 170 mg/mL
solubility at 24 h ([5]; Ethanol:Heptane 1:1, 50° C., 24 hours): > 200 mg/mL
solubility at 24 h ([5]; IPA, 5° C., 24 hours): 130 mg/mL
solubility at 24 h ([5]; IPA, 50° C., 24 hours): > 200 mg/mL
solubility at 24 h ([5]; IPA:Heptane 1:1, 5° C.): 40 mg/mL
solubility at 24 h ([5]; IPA:Heptane 1:1, 50° C.): > 200 mg/mL
solubility at 24 h ([5]; IPA:Heptane 1:2, 5° C.): 14 mg/mL
solubility at 24 h ([5]; IPA:Heptane 1:2, 50° C.): 19 mg/mL
solubility at 24 h ([5]; IPA:Heptane 1:3, 5° C.): 8 mg/mL
solubility at 24 h ([5]; IPA:Heptane 1:3, 50° C.): 10 mg/mL
solubility at 24 h ([5]; IPrOAc, 5° C., 24 hours): 11 mg/mL
solubility at 24 h ([5]; IPrOAc, 50° C., 24 hours): 6.3 mg/mL
solubility at 24 h [5, 7]: 5.6 mg/mL
solubility at 24 h [5, 8]: 1.9 mg/mL
solubility at 24 h [5, 9]: 2.1 mg/mL
solubility at 24 h ([5]; THF, 5° C., 24 hours): 79 mg/mL
solubility at 24 h ([5]; THF, 50° C., 24 hours): > 200 mg/mL
solubility at 24 h [5, 10]: 76 mg/mL
solubility at 24 h ([5]; THF:0.8% water, 50° C., 24 hours): > 200 mg/mL
solubility at 24 h [5, 11]: 6.3 mg/mL
solubility at 24 h [5, 12]: 11 mg/mL
solubility at 24 h ([5]; THF:Heptane 1:2, 5° C.): 0.33 mg/mL
solubility at 24 h ([5]; THF:Heptane 1:2, 50° C.): 0.62 mg/mL
solubility at 24 h ([5]; THF:Heptane 2:1, 5° C.): 17 mg/mL
solubility at 24 h ([5]; THF:Heptane 2:1, 50° C.): 21 mg/mL
SMILES: C[C@@H]1CN(Cc2ncccn2)C[C@H]1c1cn2c(C3CCOCC3)ncc2c(=O)[nH]1 [MH1, 6-[(3S,4S)-4-methyl-1-(pyrimidin-2-ylmethyl)pyrrolidin-3-yl]-3-tetrahydropyran-4-yl-7H-imidazo[1,5-a]pyrazin-8-one]
